# Measurements taken from patent publication US20130190309A1, “PHTHALAZINONE AND RELATED ANALOGS AS SIRTUIN MODULATORS” (priority 2009, published 2013).
# Target: T1, SIRT1 (Homo sapiens, UniProt Q96EB6)
# T1 sequence (Q96EB6 1-747): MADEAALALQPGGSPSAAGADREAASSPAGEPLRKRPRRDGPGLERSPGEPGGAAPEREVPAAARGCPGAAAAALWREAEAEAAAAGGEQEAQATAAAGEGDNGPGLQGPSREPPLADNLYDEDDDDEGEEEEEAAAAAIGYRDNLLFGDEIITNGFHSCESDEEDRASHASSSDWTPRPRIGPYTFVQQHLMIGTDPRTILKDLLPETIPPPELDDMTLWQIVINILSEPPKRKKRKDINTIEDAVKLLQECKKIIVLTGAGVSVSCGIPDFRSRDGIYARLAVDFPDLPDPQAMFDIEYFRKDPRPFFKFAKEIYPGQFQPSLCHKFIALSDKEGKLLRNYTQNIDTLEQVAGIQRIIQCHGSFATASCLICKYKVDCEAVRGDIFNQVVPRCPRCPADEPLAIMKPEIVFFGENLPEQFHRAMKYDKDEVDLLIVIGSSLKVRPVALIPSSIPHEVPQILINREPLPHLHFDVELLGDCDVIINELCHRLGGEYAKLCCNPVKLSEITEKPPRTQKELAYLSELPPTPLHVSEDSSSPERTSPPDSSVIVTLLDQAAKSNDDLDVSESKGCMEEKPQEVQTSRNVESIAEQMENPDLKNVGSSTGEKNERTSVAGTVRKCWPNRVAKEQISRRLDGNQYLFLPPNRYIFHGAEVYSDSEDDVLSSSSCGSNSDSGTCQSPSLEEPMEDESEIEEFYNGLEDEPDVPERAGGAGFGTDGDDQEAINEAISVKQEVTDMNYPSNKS
# Assay: Mass spectrometry based SIRT1 deacetylase activation assay
# Assay type: biochemical
# Details: for Emax: 25 min, percent maximum fold activation of SIRT1, read-out: SIRT1 % FOLD ACT.; for EC1.5 (concentration giving 150% activation): concentration of test compound that results in 150% activation of SIRT1
# Description: A mass spectrometry based assay was used to identify modulators of SIRT1 activity. The mass spectrometry based assay utilizes a peptide having 20 amino acid residues as follows: Ac-EE-K(biotin)-GQSTSSHSK(Ac)NleSTEG-K(5TMR)-EE-NH2 (SEQ ID NO: 1) wherein K(Ac) is an acetylated lysine residue and Nle is a norleucine. The peptide is labeled with the fluorophore 5TMR (excitation 540 nm/emission 580 nm) at the C-terminus. The sequence of the peptide substrate is based on p53 with several modifications. In addition, the methionine residue naturally present in the sequence was replaced with the norleucine because the methionine may be susceptible to oxidation during synthesis and purification.
# The mass spectrometry assay is conducted as follows: 0.5 μM peptide substrate and 120 μM βNAD^+ is incubated with 10 nM SIRT1 for 25 minutes at 25° C. in a reaction buffer (50 mM Tris-acetate pH 8, 137 mM NaCl, 2.7 mM KCl, 1 mM MgCl2, 5 mM DTT, 0.05% BSA). Test compounds may be added to the reaction as described above. The SirT1 gene is cloned into a T7-promoter containing vector and transformed into BL21(DE3). After the 25 minute incubation with SIRT1, 10 μL of 10% formic acid is added to stop the reaction. Reactions are sealed and frozen for later mass spec analysis. Determination of the mass of the substrate peptide allows for precise determination of the degree of acetylation (i.e. starting material) as compared to deacetylated peptide (product).
# A control for inhibition of sirtuin activity is conducted by adding 1 μL of 500 mM nicotinamide as a negative control at the start of the reaction (e.g., permits determination of maximum sirtuin inhibition). A control for activation of sirtuin activity is conducted using 10 nM of sirtuin protein, with 1 μL of DMSO in place of compound, to determine the amount of deacetylation of the substrate at a given timepoint within the linear range of the assay. This timepoint is the same as that used for test compounds and, within the linear range, the endpoint represents a change in velocity.
# For the above assay, SIRT1 protein was expressed and purified as follows. The SirT1 gene was cloned into a T7-promoter containing vector and transformed into BL21(DE3). The protein was expressed by induction with 1 mM IPTG as an N-terminal His-tag fusion protein at 18° C. overnight and harvested at 30,000×g. Cells were lysed with lysozyme in lysis buffer (50 mM Tris-HCl, 2 mM Tris[2-carboxyethyl]phosphine (TCEP), 10 μM ZnCl2, 200 mM NaCl) and further treated with sonication for 10 min for complete lysis. The protein was purified over a Ni-NTA column (Amersham) and fractions containing pure protein were pooled, concentrated and run over a sizing column (Sephadex S200 26/60 global). The peak containing soluble protein was collected and run on an Ion-exchange column (MonoQ). Gradient elution (200 mM-500 mM NaCl) yielded pure protein. This protein was concentrated and dialyzed against dialysis buffer (20 mM Tris-HCl, 2 mM TCEP) overnight. The protein was aliquoted and frozen at −80° C. until further use.
# Sirtuin modulating compounds that activated SIRT1 were identified using the assay described above and are shown below in Table 1. The EC1.5 values represent the concentration of test compounds that result in 150% activation of SIRT1. The EC1.5 values for the activating compounds are represented by A (EC1.5 <5 μM), B (EC1.5 5-50 μM), or C (EC1.5 >50 μM). The percent maximum fold activation is represented by A (Fold activation >150%) or B (Fold Activation <150%).
Structure (SMILES),Emax,EC1.5 (concentration giving 150% activation)
O=C(Nc1cccc2c1C(=O)N(c1cccc(C(F)(F)F)c1)CC2)c1cscn1 [Compound 100],> 150%,5 to 50 µM
"O=C(Nc1cccc2c1C(=O)N(c1cccc(C(F)(F)F)c1)CC2)c1cnccn1 [Compound 101, N-(1-oxo-2-(3-(trifluoromethyl)phenyl)-1,2,3,4-tetrahydroisoquinolin-8-yl)pyrazine-2-carboxamide]",> 150%,5 to 50 µM
O=C(Nc1cccc2cnn(-c3cccc(C(F)(F)F)c3)c(=O)c12)c1cscn1 [Compound 102],< 150%,< 5 µM
"O=C(Nc1cccc2cnn(-c3cccc(C(F)(F)F)c3)c(=O)c12)c1cnccn1 [Compound 103, N-(4-oxo-3-(3-(trifluoromethyl)phenyl)-3,4-dihydrophthalazin-5-yl)pyrazine-2-carboxamide]",> 150%,5 to 50 µM
O=C(Nc1cccc2cnn(-c3cccc(C(F)(F)F)c3)c(=O)c12)C1CCOCC1 [Compound 104],,> 50 µM

# Next, values leading:
Emax,EC1.5 (concentration giving 150% activation),Structure (SMILES)
> 150%,< 5 µM,"O=C(Nc1cccc2cnn(-c3cccc(C(F)(F)F)c3)c(=O)c12)c1cccc(OCC(O)CO)n1 (centres unmarked) [Compound 105, 6-(2,3-dihydroxypropoxy)-N-(4-oxo-3-(3-(trifluoromethyl)phenyl)-3,4-dihydrophthalazin-5-yl)picolinamide]"
> 150%,< 5 µM,"O=C(Nc1cccc2cnn(-c3cccc(C(F)(F)F)c3)c(=O)c12)c1cccc(CN2CCOCC2)n1 [Compound 106, 6-(morpholinomethyl)-N-(4-oxo-3-(3-(trifluoromethyl)phenyl)-3,4-dihydrophthalazin-5-yl)picolinamide]"
> 150%,< 5 µM,"O=C(Nc1cccc2cnn(-c3cccc(OC(F)(F)F)c3)c(=O)c12)c1cccc(OCC(O)CO)n1 (centres unmarked) [Compound 107, 6-(2,3-dihydroxypropoxy)-N-(4-oxo-3-(3-(trifluoromethoxy)phenyl)-3,4-dihydrophthalazin-5-yl)picolinamide]"
> 150%,< 5 µM,"O=C(Nc1cccc2cnn(-c3cccc(OC(F)(F)F)c3)c(=O)c12)c1cccc(CN2CCOCC2)n1 [Compound 108, 6-(morpholinomethyl)-N-(4-oxo-3-(3-(trifluoromethoxy)phenyl)-3,4-dihydrophthalazin-5-yl)picolinamide]"
